From ChEMBL document CHEMBL4265871, “Novel alkylated azoles as potent antifungals” (Eur J Med Chem, 2017)

Tests used:
[1] = tested on: Candida albicans; experiment: Effect on sterol composition in Candida albicans ATCC 10231 assessed as ergosterol level at 0.125 ug/mL incubated for 10 mins by GC-MS analysis (reference value: 91.15%)
[2] = tested on: Candida albicans; experiment: Effect on sterol composition in Candida albicans ATCC 10231 assessed as lanosterol level at 0.125 ug/mL incubated for 10 mins by GC-MS analysis (reference value: 4.17%)
[3] = tested on: Candida albicans; experiment: Fungicidal activity against Candida albicans ATCC 10231 assessed as reduction in microbial growth at 4 times MIC incubated for 6 hrs by time kill assay; assay type: functional
[4] = tested on: Candida albicans; experiment: Effect on sterol composition in Candida albicans ATCC 64124 assessed as ergosterol level at 1.95 ug/mL incubated for 10 mins by LC-MS analysis (reference value: 54.72%)
[5] = tested on: Candida albicans; experiment: Effect on sterol composition in Candida albicans ATCC 64124 assessed as eburicol level at 1.95 ug/mL incubated for 10 mins by LC-MS analysis (reference value: 6.28%)
[6] = tested on: Candida albicans; experiment: Effect on sterol composition in Candida albicans ATCC 10231 assessed as unknown sterol level at 0.125 ug/mL incubated for 10 mins by GC-MS analysis (reference value: 1.88 to 2.78%)
[7] = tested on: Candida albicans; experiment: Effect on sterol composition in Candida albicans ATCC 10231 assessed as 14-alpha-methyl-ergosta-8,24(28)dien-3beta,6alpha-diol level at 0.125 ug/mL incubated for […] by GC-MS analysis
[8] = tested on: BEAS-2B; experiment: Toxicity in human BEAS2B cells assessed as reduction in cell viability up to 7.8 ug/ml incubated for 24 hrs by resazurin dye based assay

SMILES	Activity [1] [%]	Activity [2] [%]	Activity [3] [log10CFU]	Activity [4] [%]	Activity [5] [%]	Activity [6]	Activity [7] [%]	Activity [8]
CCCCCCC(O)(Cn1cncn1)c1ccc(Cl)cc1Cl (stereo not drawn)	49	19.3	1.25	5.73	47.97	4.36 - 5.57%	18.81	
CCCCCCCCC(O)(Cn1cncn1)c1ccc(F)cc1F (stereo not drawn)								Non-Toxic
